{"source": "patent US6410034B1", "about": "“Dermal absorption-promoting agent” (Takasago International Corporation, priority 1998, dated 2002)", "key": {"[1]": {"conditions": "isosorbide dinitrate in an aqueous suspension; Fragrance Journal, p34, 1996-4; cited from earlier work"}, "[2]": {"conditions": "combined together with indomethacin; YAKUZAIGAKU vol.56 No.3 (1996), DDS Vol. 12 No. 2 (1997); cited from earlier work"}, "skin of Yucatan Micropig [3]": {"tested_on": "skin of Yucatan Micropig", "assay": "Dermal permeation test of IM, Example 3, water/1,3-butylene glycol samples, MDM, MPD and 1:1 combination", "type": "in vitro ADME", "conditions": "indomethacin 0.05 g, promoting agent 0.3 g total (combination 0.15 g + 0.15 g), water 6.0 ml / 1,3-BG 4.0 ml", "procedure": "(§1) A skin of Yucatan Micropig [5 month-old, male, NIPPON CHARLES RIVER (KK)] stored frozen at −80° C. was thawed at room temperature and, after removing an unwanted fat adhering to the skin, cut into pieces, each in about 2 cm square, which were subjected to a permeation test.\nIn the permeation test, a diffusion cell of a modified Franz type (valid surface area: 1.1 cm^2, receptor phase: 16 ml) containing a phosphate buffer, pH7.1, was provided on the receptor phase side, which was stirred with a star-head magnet at 600 rpm with keeping at 37° C. On the donor side, 0.5 ml of a sample solution was contained and closed with a glass ball in order to prevent the evaporation of the sample solution. At a predetermined time, an aliquot was sampled and an equal volume of a buffer solution was supplemented. A receptor phase fractionated was subjected to a high pressure liquid chromatography (HPLC) to quantify the drug which had permeated. The permeation test was continued over a period of 30 to 48 hours. […]"}, "skin of Yucatan Micropig [4]": {"tested_on": "skin of Yucatan Micropig", "assay": "Dermal permeation test of IM, Example 2, water/1,3-butylene glycol samples", "type": "in vitro ADME", "conditions": "indomethacin 0.05 g, promoting agent 0.3 g, water 6.0 ml / 1,3-BG 4.0 ml", "procedure": "as §1\nIn the permeation test, a diffusion cell of a modified Franz type (valid surface area: 1.1 cm^2, receptor phase: 16 ml) containing a phosphate buffer, pH7.1, was provided on the receptor phase side, which was stirred with a star-head magnet at 600 rpm with keeping at 37° C. On the donor side, 0.5 ml of a sample solution was contained and closed with a glass ball in order to prevent the evaporation of the sample solution. At a predetermined time, an aliquot was sampled and an equal volume of a buffer solution was supplemented. A receptor phase fractionated was subjected to a high pressure liquid chromatography (HPLC) to quantify the drug which had permeated. The permeation test was continued over a period of 30 to 48 hours.\nA lipophilic agent indomethacin (IM) was used to compare the dermal absorption-promoting effect of p-menthane-3,8-diol (MDM: mixture of trans and cis forms) with those of l-menthol (LM) together with a control."}, "skin of Yucatan Micropig [5]": {"tested_on": "skin of Yucatan Micropig", "assay": "Dermal permeation test of antipyrine (ANP), Example 1, water/ethanol samples, modified Franz diffusion cell", "type": "in vitro ADME", "conditions": "promoting agent dissolved in ethanol and combined with water, 37° C., 30 to 48 hours", "description": "(§2) A lipophilic agent indomethacin (IM) and a hydrophilic agent antipyrine (ANP) were used to compare the dermal absorption-promoting effect of p-menthane-3,8-diol (MDM: mixture of trans and cis forms) with those of l-menthol (LM) and 3-l-menthoxypropane-1,2-diol (MPD) together with a control.\n(§3) According to the formulations shown in Table 1 (IM) and Table 2 (ANP), each of the three dermal absorption-promoting agents was employed, dissolved in ethanol and combined with water to prepare a sample. The samples thus prepared were stored at 37° C. until use.\nas §1\n(§4) In the permeation test, a diffusion cell of a modified Franz type (valid surface area: 1.1 cm^2, receptor phase: 16 ml) containing a phosphate buffer, pH7.1, was provided on the receptor phase side, which was stirred with a star-head magnet at 600 rpm with keeping at 37° C. […] A receptor phase fractionated was subjected to a high pressure liquid chromatography (HPLC) to quantify the drug which had permeated. […]\n(§5) IM and ANP were determined using an UV spectrophotometer model SPD-6A (SHIMADZU) at wavelengths of 254 nm and 245 nm, respectively. […]"}, "mosquito": {"tested_on": "mosquito", "conditions": "known from prior art; cited from earlier work"}, "skin of Yucatan Micropig [6]": {"tested_on": "skin of Yucatan Micropig", "assay": "Dermal permeation test of indomethacin (IM), Example 1, water/ethanol samples, modified Franz diffusion cell", "type": "in vitro ADME", "conditions": "indomethacin 0.05 g, promoting agent 0.3 g, water 6.0 ml / ethanol 4.0 ml, 37° C., 30 to 48 hours", "description": "as §2, §3, §1, §4, §5"}}, "note": "“Also recorded” adds a separate entry of the source."}
{"smiles": "CC(C)[C@@H]1CC[C@@H](C)C[C@H]1O", "note": "[LM, l-menthol]", "values": [{"measurement": "promotion of dermal permeation of isosorbide dinitrate", "setting": "[1]", "value": "promoted greatly"}, {"measurement": "promotion of dermal absorption of indomethacin", "setting": "[2]", "value": "promotes the dermal absorption of indomethacin"}]}
{"smiles": "CC1CCC(C(C)(C)O)C(O)C1", "note": "(centres unmarked) [MDM, p-menthane-3,8-diol]", "values": [{"measurement": "dermal permeation-promoting ability (cumulative permeation of IM vs time, FIG. 4)", "setting": "skin of Yucatan Micropig [3]", "value": "higher than that of MPD"}, {"measurement": "dermal permeation-promoting ability (cumulative permeation of IM vs time, FIG. 3)", "setting": "skin of Yucatan Micropig [4]", "value": "exhibited a dermal permeation-promoting ability, although the ability was not as high as that of LM; also recorded: promoted the dermal permeation of IM"}, {"measurement": "dermal permeation-promoting ability (cumulative permeation of ANP vs time, FIG. 2)", "setting": "skin of Yucatan Micropig [5]", "value": "exhibited a dermal permeation-promoting ability, although the ability was not as high as that of LM and MPD; also recorded: promoted the dermal permeation of ANP"}, {"measurement": "dermal permeation-promoting ability (cumulative permeation of ANP vs time, FIG. 2)", "setting": "skin of Yucatan Micropig [5]; listed as p-menthane-3,8-diol", "value": "promoted the dermal permeation of both of lipophilic agent indomethacin and hydrophilic antipyrine"}, {"measurement": "repelling effect on a mosquito", "setting": "mosquito", "value": "known to have a repelling effect on a mosquito"}, {"measurement": "dermal permeation-promoting ability (cumulative permeation of IM vs time, FIG. 1)", "setting": "skin of Yucatan Micropig [6]", "value": "not as high as that of LM but was higher than that of MPD; also recorded: promoted the dermal permeation of IM"}, {"measurement": "dermal permeation-promoting ability (cumulative permeation of IM vs time, FIG. 1)", "setting": "skin of Yucatan Micropig [6]; listed as p-menthane-3,8-diol", "value": "promoted the dermal permeation of both of lipophilic agent indomethacin and hydrophilic antipyrine"}]}
{"smiles": "CC1CCC(C(C)C)C(OCC(O)CO)C1", "note": "(stereo not drawn) [MPD, 3-l-menthoxypropane-1,2-diol]", "values": [{"measurement": "promotion of dermal absorption of indomethacin", "setting": "[2]", "value": "somewhat lower than that of l-menthol; also recorded: promotes the dermal absorption of indomethacin"}]}
{"smiles": "CC12CCC(CC1)C(C)(C)O2", "note": "[1,8-cineol]", "values": [{"measurement": "promotion of dermal permeation of isosorbide dinitrate", "setting": "[1]", "value": "promoted greatly"}]}
